Experimental data: patent US20210030039A1, “Prebiotic Compositions And Methods Of Production Thereof” (Optibiotix Limited, priority 2018, published 2021)

Assays:
[1] = Sensory profiling (QDA) by trained sensory panel, unstructured line scales 0-100; format: in vivo, human
Source text: A trained sensory panel at the Reading Sensory Science Centre (UK) were employed for sensory profiling of the samples. There were 10 panellists with between 1 and 9 years' experience. A QDA (quantitative descriptive analysis) profiling approach was taken. The panel used the same vocabulary that they had developed as a consensus for the tasting sessions including the term liquorice flavour which is characteristic note of steviol glycosides. The panel were retrained at the start of the sample set over 3 separate tasting sessions. This re-training focused on ensuring that they could reliably score sweetness relative to the new concentration of sucrose standard positions. Rating was carried out independently using unstructured lines scales (scaled 0-100), in duplicate, in isolated sensory booths. However, in order to improve discrimination for sweetness, the four sucrose samples were used as standards and the mean values for each of these samples, as agreed by the panel, are shown in Table 1 below. At the start of each scoring session the panel tasted the four reference samples in order of increasing strength to re-familiarise themselves with the positioning of these levels of sweetness on the line scale. The reference samples (10 mL) were served in transparent polystyrene cups (30 mL). They then palate cleansed with warm filtered tap water and low salt crackers (Carr's water crackers) before commencing the sample tasting session, and again between each sample scoring session. Samples, labelled with random 3 digit codes, were presented in a balanced presentation order in a monadic sequential manner with a maximum of 6 samples per day. Samples were served at 23-24° C. (room temperature) with air conditioning of the room set to 23° C.

[2] = reported; cited from earlier work

## OC[C@H]1O[C@@](CO)(O[C@H]2O[C@H](CO)[C@@H](O)[C@H](O)[C@H]2O)[C@@H](O)[C@@H]1O [Sucrose]
[1]; Standard 1, sucrose 2.0 % w/v
  Mean Rating (0-100), sweetness standard: 10
[1]; Standard 2, sucrose 4.0 % w/v
  Mean Rating (0-100), sweetness standard: 35
[1]; Standard 3, sucrose 6.0 % w/v
  Mean Rating (0-100), sweetness standard: 75
[1]; Standard 4, sucrose 8.0 % w/v
  Mean Rating (0-100), sweetness standard: 100

## C[C@H](CC[C@@H](O[C@@H]1O[C@H](CO[C@@H]2O[C@H](CO)[C@@H](O)[C@H](O)[C@H]2O)[C@@H](O)[C@H](O)[C@H]1O[C@@H]1O[C@H](CO)[C@@H](O)[C@H](O)[C@H]1O)C(C)(C)O)[C@H]1CC[C@@]2(C)[C@@H]3CC=C4[C@@H](CC[C@H](O[C@@H]5O[C@H](CO[C@@H]6O[C@H](CO)[C@@H](O)[C@H](O)[C@H]6O)[C@@H](O)[C@H](O)[C@H]5O)C4(C)C)[C@]3(C)[C@H](O)C[C@]12C [Mogroside V]
[2]
  sweet potency relative to sucrose: ~400 ×
